From patent US5808100A, “Chromene compounds and photochromic materials” (Tokuyama Corporation, priority 1995, dated 1998)

What was measured:
[1] = Durability T1/2 by xenon fadometer FAC-25AX-HC; assay type: physicochemical; conditions: in polymer
Procedure: (§1) 0.05 Parts of the chromene compound obtained in Example 1 was added to 70 parts of a tetraethylene glycol dimethacrylate, 15 parts of a triethylene glycol dimethacrylate, 10 parts of a glycidyl methacrylate and 5 parts of a 2-hydroethyl methacrylate, and was mixed to a sufficient degree. The mixture solution was poured into a mold constituted by a glass plate and a gasket made from an ethylene/vinyl acetate copolymer and then polymerized. The polymerization was conducted by using an air furnace while gradually raising the temperature up to 30° C. to 90° C. over a period of 18 hours, the temperature being maintained at 90° C. for two hours. After the polymerization, the polymer was taken out from the glass mold.
(§2) Color fading rate [t1/2 ]: Time required by the polymer irradiated for 120 seconds until the absorbancy decreases down to one-half of [ε(120)-ε(0)]. Durability [T1/2 ]: Time required until the absorbency at the maximum absorption wavelength decreases down to 1/2 of the initial absorbency as measured by using a xenon fadometer FAC-25AX-HC manufactured by Suga Shikenki Co.
(§3) The photochromic polymers were obtained in the same manner as described above but using the compounds obtained in Examples 2 to 33 as chromene compounds. For the purpose of comparison, properties of the compounds represented by the following formulas (A), (B), (D) and (E) were also shown in Table 3. [drawing 110]

[2] = Photochromic properties of polymer (2 mm thick) containing the chromene compound, xenon lamp irradiation 120 seconds; assay type: physicochemical; design: key to Color density ε(120)-ε(0): absorbance at λmax after 120 s irradiation minus before, ε(120)-ε(0); conditions: for Color density ε(120)-ε(0): 120 seconds irradiation, 20° C.±1° C.; for Color density ε(120)-ε(0) / ε(0): absorbancy of the polymer not irradiated (initial color): at λmax; for Color fading rate t1/2: time until absorbancy decreases to one-half of [ε(120)-ε(0)]: after 120 seconds irradiation; for Maximum absorption wavelength λMax (developed color tone): polymer after developing color
Procedure: as §1
The obtained polymer (2 mm thick) was irradiated with light from a xenon lamp L-2480 (300 W) SHL-100 manufactured by Hamamatsu Photonics Co. through an Aero Mass filter (manufactured by Corning Co.) for 120 seconds under the conditions of 20° C.±1° C., beam intensities of 365 nm=2.4 mW/cm^2 and […]=24 μW/cm^2 on the polymer surface to develop color and to measure photochromic properties. The photochromic properties were expressed as described below.
Maximum absorption wavelength (λmax): λmax of the polymer after it has developed color was found by using a spectrophotometer (instantaneous multi-channel photodetector MCPD1000) manufactured by Otsuka Denshi Kogyo Co.
ε(120): Absorbancy of the polymer using light of a maximum absorption wavelength after it was irradiated under the above-mentioned conditions for 120 seconds.
ε(0): Absorbancy of the polymer that has not been irradiated using light of a wavelength same as the maximum absorption wavelength of light with which the polymer was irradiated.
ε(120)-ε(0): Color density
as §2, §3

| SMILES | Durability T1/2: time until absorbancy at maximum absorption wavelength decreases to 1/2 of the initial [1] [h] | Color density ε(120)-ε(0) [2] | Color fading rate t1/2: time until absorbancy decreases to one-half of [ε(120)-ε(0)] [2] [min] | ε(0): absorbancy of the polymer not irradiated (initial color) [2] | Maximum absorption wavelength λMax (developed color tone) [2] [nm] |
| --- | --- | --- | --- | --- | --- |
| CC(C)(C)Oc1ccc2ccc3c(c2c1)C=CC(c1cccs1)(c1ccc2ccccc2c1Cl)O3 (stereo not shown) [Compound 21] | 470 | 1.35 | 1.17 | 0.05 | 450 |
| N#Cc1cc(Cl)c(C2(c3ccoc3)C=Cc3c(ccc4ccccc34)O2)s1 (stereo not shown) [Compound 24] | 480 | 1.12 | 1.08 | 0.05 | 458 |
| C1=CC(c2ccco2)(c2cc3ccccc3o2)Oc2ccc3ccccc3c21 (stereo not shown) [Compound 25] | 540 | 1.23 | 0.983 | 0.06 | 492 |
| C1=CC(c2ccco2)(c2csc3ccccc23)Oc2ccc3ccccc3c21 (stereo not shown) [Compound 26] | 510 | 1.05 | 0.833 | 0.06 | 460 |
| COc1cc2c(c3ccccc13)C=CC(c1cc(Cl)c3ccccc3c1)(c1cc3ccccc3s1)O2 (stereo not shown) [Compound 29] | 480 | 1.30 | 1.37 | 0.12 | 440 |
| C1=CC(c2ccccc2)(c2cccs2)Oc2ccc3ccccc3c21 (stereo not shown) [D, reference compound] | 490 | 0.51 | 0.7 | 0.04 | 466 |
| Cc1csc(C2(c3scc(C)c3C)C=Cc3c(ccc4ccccc34)O2)c1C [E, reference compound] | 485 | 0.86 | 1.25 | 0.26 | 514 |

Second part, the compound after the results:

| Durability T1/2: time until absorbancy at maximum absorption wavelength decreases to 1/2 of the initial [1] [h] | Color density ε(120)-ε(0) [2] | Color fading rate t1/2: time until absorbancy decreases to one-half of [ε(120)-ε(0)] [2] [min] | ε(0): absorbancy of the polymer not irradiated (initial color) [2] | Maximum absorption wavelength λMax (developed color tone) [2] [nm] | SMILES |
| --- | --- | --- | --- | --- | --- |
| 495 | 1.18 | 1.17 | 0.04 | 450 | Fc1c(C2(c3ccsc3)C=Cc3c(ccc4ccccc34)O2)ccc2ccccc12 (stereo not shown) [Compound 30] |
| 490 | 1.44 | 1.33 | 0.06 | 480 | Fc1c(C2(c3ccco3)C=Cc3c(ccc4ccccc34)O2)ccc2ccccc12 (stereo not shown) [Compound 31] |
| 490 | 1.28 | 1.08 | 0.05 | 450 | Fc1occc1C1(c2ccc3ccccc3c2)C=Cc2c(ccc3ccccc23)O1 (stereo not shown) [Compound 32] |
| 495 | 1.11 | 1.13 | 0.04 | 460 | Fc1cc2ccccc2cc1C1(c2cccs2)C=Cc2c(ccc3ccccc23)O1 (stereo not shown) [Compound 33] |
